In general, Ki refers to the equilibrium dissociation constant of an inhibitor or competing ligand from its target. The term IC50 denotes the midpoint of a concentration-inhibition curve.

We go through three compounds from patent publication US5216147A, “Radioactive benzodiazepine derivatives” (Sumitomo Chemical Company, Limited, priority 1987, dated 1993).

The first assay has as its target Benzodiazepine Receptors. Description: Benzodiazepine receptor binding affinity: displacement of 3H-diazepam from rat synaptosomal membranes. As to conditions: 3H-diazepam, 4° C., 15 min, triplicate. The method, then:
2'-Iododiazepam, Diazepam and Fludiazepam were screened as for benzodiazepine binding affinity according to the method reported by Nakatsuka (Life Sciences 36 (2) 113-119, 1985). An aliquot of synaptosomal membrane preparations was incubated at 4° C. for 15 min. with each of the unlabeled competing drugs (2'-Iodoiazepam, Diazepam and Fludiazepam) in different concentration and 3H-diazepam. The incubation was terminated by adding ice-cold Tris-HCl buffer followed by a rapid filtration through a Whatman GF/B filter. The bound 3H-diazepam retained on the filter was extracted with ACS-II (Amersham) and counted. All incubations were conducted in triplicate. Nonspecific binding was determined in tubes containing diazepam. Specific binding was calculated by subtracting the nonspecific binding from the total binding. IC50 values, the concentrations of the tested compounds that cause 50% inhibition of the specific 3H-diazepam were determined from the displacement curves obtained.
A general note: Displacement assays read how much labelled ligand stays bound in the presence of the test substance.
`CN1C(=O)CN=C(c2ccccc2I)c2cc(Cl)ccc21` [2'-Iododiazepam, 7-chloro-1-methyl-5-(2-iodophenyl)-3H-1,4-benzodiazepin-2-one]: the Ki came out at 0.21 nM.
Same read-out and setting: the result for `CN1C(=O)CN=C(c2ccccc2)c2cc(Cl)ccc21` [Diazepam] reads 7.7 nM.
Same read-out and setting: for `CN1C(=O)CN=C(c2ccccc2F)c2cc(Cl)ccc21` [Fludiazepam] the value was 1 nM.

The same assay, now with this note: inhibition of specific 3H-diazepam binding, 4° C., 15 min, triplicate.
Consider `CN1C(=O)CN=C(c2ccccc2I)c2cc(Cl)ccc21` [2'-Iododiazepam, 7-chloro-1-methyl-5-(2-iodophenyl)-3H-1,4-benzodiazepin-2-one], for which the IC50 is 0.25 nM.
Same read-out and setting: for `CN1C(=O)CN=C(c2ccccc2)c2cc(Cl)ccc21` [Diazepam] the value was 9 nM.
The same measure, in the same setting: the result for `CN1C(=O)CN=C(c2ccccc2F)c2cc(Cl)ccc21` [Fludiazepam] reads 1.2 nM.

Staying with this assay, now noted: relative to Diazepam = 100, 3H-diazepam.
Turning to `CN1C(=O)CN=C(c2ccccc2I)c2cc(Cl)ccc21` [2'-Iododiazepam, 7-chloro-1-methyl-5-(2-iodophenyl)-3H-1,4-benzodiazepin-2-one], the “Relative Potency” value was 3600.
Take `CN1C(=O)CN=C(c2ccccc2)c2cc(Cl)ccc21` [Diazepam]: the “Relative Potency” value worked out at 100.
The same measure, in the same setting: the result for `CN1C(=O)CN=C(c2ccccc2F)c2cc(Cl)ccc21` [Fludiazepam] reads 770.
